From patent publication US9133225B2, “Dual targeting anticancer agents” (priority 2013, dated 2015)

How the values were obtained:
[1] = tested on: all cell lines; test: MTT cytotoxicity assay, across the cell lines; format: cell-based; details: non-tumorigenic lung fibroblast cells (MRC-5) vs ovarian carcinoma cells (A2780)
Excerpt: (§1) (a) Dulbecco's Modified Eagle Medium (DMEM), Dulbecco's phosphate buffered saline (DPBS), fetal bovine serum (FBS) and 0.25% trypsin/EDTA solutions were purchased from Cellgro (Manassas, Va.). Penicillin-streptomycin solutions were purchased from Mediatech (Manassas, Va.). (b) HeLa (CCL-2TM) cells, A549, A2870, A2870/CP70, MCF-7, PC-3, and MRC-5 cells were purchased from American Type Culture Collection (ATCC, Manassas, Va., USA). (c) HCT116 cells were kindly donated by Laura Trudel (MIT). HeLa, A549, MCF-7, and MRC-5 cells were cultured using DMEM supplemented with 10% FBS and 1% penicillin-streptomycin. A2870, A2870/CP70, and PC-3 cells were cultured in RPMI supplemented with 10% FBS and 1% penicillin-streptomycin. HCT116 cells were cultured in McCoy's supplemented with 10% FBS and 1% penicillin-streptomycin. All cell-culture experiments were performed in the aforementioned media in an incubator operating at 37° C. and in the presence of a humidified atmosphere containing 5.0% CO2. Cells were harvested using a 0.25% trypsin/EDTA solution.
(§2) The cytotoxicity of the compounds was assessed by means of the MTT assay (MTT=3-(4,5-dimethyl-2-thiazolyl)-2,5-diphenyl-2H-tetrazolium bromide). Typically, on day one, ˜1×10^3 cells were seeded into 96-well plates in 100 μL media per well. […] The optical density for each well at 550 nm was measured with a microplate reader.

[2] = tested on: A549 cells; test: Immunoblotting of DNA damage and apoptosis biomarkers; format: cell-based; details: 0.75-6 μM, 48 h
Description: To gain further insight into the cellular response evoked by Pt(IV)(α-TOS)(OEt) treatment, biomarkers related to DNA damage and apoptosis were monitored. […] Whole cell lysates were resolved by SDS-PAGE and analyzed by immunoblotting against γH2AX, p53, and cleaved caspase-7, cleaved caspase-9, cleaved PARP-1, and β-actin as control.
A549 cells (5×10^5 cells) were incubated with test compound for 48 h at 37° C. Cells were washed with PBS, scraped into SDS-PAGE loading buffer (64 mM Tris-HCl (pH6.8)/9.6% glycerol/2% SDS/5% β-mercaptoethanol/0.01% Bromophenol Blue) and incubated at 95° C. for 10 min. Whole cell lysates were resolved by 4-20% sodium dodecylsulphate polyacylamide gel electrophoresis (SDS-PAGE; 200 V for 1 h) followed by electro transfer to polyvinylidene difluoride membrane, PVDF (350 mA for 1 h). Membranes were blocked in 5% (w/v) non-fat milk in PBST (PBS/0.1% Tween 20) and incubated with the appropriate primary antibodies (Cell Signalling Technology and Santa Cruz). After incubation with horseradish peroxidase-conjugated secondary antibodies (Cell Signalling Technology), immune complexes were detected with the ECL detection reagent (BioRad) and analysed using an Alpha Innotech ChemiImager™ 5500 fitted with a chemiluminescence filter.

[3] = tested on: A2780 ovarian cancer cells; test: PI-annexin-V dual staining apoptosis assay; format: cell-based; details: 4 μM for 48 h
[4] = tested on: A2780/CP70 cells (CisPt resistant); test: MTT cytotoxicity assay, A2780/CP70; details: read-out: cytotoxicity IC50; A2780/CP70, ovarian (CisPt resistant); MTT, 48 h treatment; spread in brackets
Excerpt: as §1, §2

[5] = tested on: A549 cells; test: JC-1 mitochondrial membrane potential assay; format: cell-based
Description: To investigate the effect of Pt(IV)(α-TOS)(OEt) on mitochondria, changes in the mitochondrial membrane potential were assessed by the JC-1 assay. JC-1 (5,5′,6,6′-tetrachloro-1,1′3,3′-tetraethylbenzimidazolylcarbocyanine iodide) is a positively charged lipophilic dye, which accumulates in the mitochondria of healthy cells as red-emitting aggregates. When the mitochondrial membrane is compromised, JC-1 de-aggregates into monomeric forms that emit green fluorescence. […] These findings were confirmed using flow cytometry. A large population of untreated and Pt(IV)(α-TOS)(OEt)-treated A549 cells were examined.
In order to monitor the cell cycle, flow cytometry studies were carried out. A549 cells were incubated with and without the test compounds for 24 and 48 h at 37° C. Cells were harvested from adherent cultures by trypsinization and combined with all detached cells from the incubation medium to assess total cell viability. Following centrifugation at 1000 rpm for 5 min, cells were washed with PBS and then fixed with 70% ethanol in PBS. Fixed cells were collected by centrifugation at 2500 rpm for 3 min, washed with PBS and centrifuged as before. Cellular pellets were re-suspended in 50 μg/mL propidium iodide (Sigma) in PBS for nucleic acids staining and treated with 100 μg/mL RNaseA (Sigma). DNA content was measured on a FACSCalibur-HTS flow cytometer (BD Biosciences) using laser excitation at 488 nm and 20,000 events per sample were acquired. Cell cycle profiles were analysed using the ModFit software. For the apoptosis experiments, the Annexin V-FITC Early Apoptosis Detection Kit (Cell Signaling Technology) was used. […] The samples were kept on ice prior to being read on the FACSCalibur-HTS flow cytometer (BD Biosciences) (20,000 events per sample were acquired). Cell populations were analysed using the FlowJo software (Tree Star). […] The cells were incubated for 30 min, harvested, and analysed by using the FACSCalibur-HTS flow cytometer (BD Biosciences) (20,000 events per sample were acquired). […] Cell populations were analysed using the FlowJo software (Tree Star).

## CC[O][Pt]([NH2])([NH2])([Cl])([Cl])[O]C(=O)CCC(=O)Oc1c(C)c(C)c2c(c1C)CCC(C)(CCCC(C)CCCC(C)CCCC(C)C)O2 (stereo not drawn) [Pt(IV)(α-TOS)(OEt)]
[1]
  reduction in toxicity for MRC-5 compared to A2780: 265 fold
[2]
  cleaved PARP-1 expression: increased
  cleaved caspase-9 expression: increased
  p53 expression: increased in a dose-dependent manner
  γH2AX expression: an increase in γH2AX expression
[3]
  cell population with characteristics of early apoptosis: 28%
[4]
  IC50: 1100 nM
[5]; 25 μM, 4 h
  cells expressing green JC-1 fluorescence (FL1-H), flow cytometry: a marked increase in cells expressing green fluorescence
[5]; cisplatin or Pt(IV)(α-TOS)(OEt) at 20 μM, 4 hours
  JC-1 fluorescence (mitochondrial membrane disruption), microscopy: A similar phenomenon was observed
